Laboratory results published in ChEMBL document CHEMBL3046407, “Toxicity of monoterpenes against larvae and adults of Colorado potato beetle, Leptinotarsa decemlineata Say (Coleoptera: Chrysomelidae)” (2007).

Experiments:
[1] = system: Leptinotarsa decemlineata; experiment: Insecticidal activity against first-instar larval stage of Leptinotarsa decemlineata infested potato leaves assessed as mortality at 10 mg after 48 hr relative to control; type: functional
[2] = system: Leptinotarsa decemlineata; type: functional, Instar larval stage
[3] = system: Leptinotarsa decemlineata; experiment: Insecticidal activity against adult Leptinotarsa decemlineata infested potato leaves assessed as mortality at 20 mg after 12 hr relative to control; type: functional
[4] = system: Leptinotarsa decemlineata; experiment: Insecticidal activity against first-instar larval stage of Leptinotarsa decemlineata infested potato leaves assessed as mortality at 10 mg after 96 hr relative to control; type: functional
[5] = system: Leptinotarsa decemlineata; experiment: Insecticidal activity against adult Leptinotarsa decemlineata infested potato leaves assessed as mortality at 10 mg after 48 hr relative to control; type: functional
[6] = system: Leptinotarsa decemlineata; experiment: Insecticidal activity against second-instar larval stage of Leptinotarsa decemlineata infested potato leaves assessed as mortality at 10 mg after 12 hr relative to control; type: functional
[7] = system: Leptinotarsa decemlineata; experiment: Insecticidal activity against first-instar larval stage of Leptinotarsa decemlineata infested potato leaves assessed as mortality at 20 mg after 48 hr relative to control; type: functional
[8] = system: Leptinotarsa decemlineata; experiment: Insecticidal activity against adult Leptinotarsa decemlineata infested potato leaves assessed as mortality at 20 mg after 24 hr relative to control; type: functional
[9] = system: Leptinotarsa decemlineata; experiment: Insecticidal activity against first-instar larval stage of Leptinotarsa decemlineata infested potato leaves assessed as mortality at 10 mg after 24 hr relative to control; type: functional
[10] = system: Leptinotarsa decemlineata; experiment: Insecticidal activity against adult Leptinotarsa decemlineata infested potato leaves assessed as mortality at 10 mg after 12 hr relative to control; type: functional
[11] = system: Leptinotarsa decemlineata; experiment: Insecticidal activity against third-instar larval stage of Leptinotarsa decemlineata infested potato leaves assessed as mortality at 10 mg after 24 hr relative to control; type: functional
[12] = system: Leptinotarsa decemlineata; experiment: Insecticidal activity against third-instar larval stage of Leptinotarsa decemlineata infested potato leaves assessed as mortality at 10 mg after 12 hr relative to control; type: functional
[13] = system: Leptinotarsa decemlineata; experiment: Insecticidal activity against adult Leptinotarsa decemlineata infested potato leaves assessed as mortality at 20 mg after 96 hr relative to control; type: functional
[14] = system: Leptinotarsa decemlineata; type: functional, Instar larval stage; remark: listed apart in the source
[15] = system: Leptinotarsa decemlineata; type: functional, Instar larval stage; remark: listed apart in the source
[16] = system: Leptinotarsa decemlineata; type: functional, Instar larval stage; remark: listed apart in the source
[17] = system: Leptinotarsa decemlineata; type: functional, Instar larval stage; remark: listed apart in the source
[18] = system: Leptinotarsa decemlineata; experiment: Insecticidal activity against first-instar larval stage of Leptinotarsa decemlineata infested potato leaves assessed as mortality at 20 mg after 96 hr relative to control; type: functional
[19] = system: Leptinotarsa decemlineata; experiment: Insecticidal activity against adult Leptinotarsa decemlineata infested potato leaves assessed as mortality at 10 mg after 24 hr relative to control; type: functional
[20] = system: Leptinotarsa decemlineata; type: functional, Instar larval stage; remark: listed apart in the source
[21] = system: Leptinotarsa decemlineata; experiment: Insecticidal activity against adult Leptinotarsa decemlineata infested potato leaves assessed as mortality at 20 mg after 48 hr relative to control; type: functional
[22] = system: Leptinotarsa decemlineata; experiment: Insecticidal activity against first-instar larval stage of Leptinotarsa decemlineata infested potato leaves assessed as mortality at 20 mg after 12 hr relative to control; type: functional
[23] = system: Leptinotarsa decemlineata; type: functional, Instar larval stage; remark: listed apart in the source
[24] = system: Leptinotarsa decemlineata; experiment: Insecticidal activity against second-instar larval stage of Leptinotarsa decemlineata infested potato leaves assessed as mortality at 20 mg after 12 hr relative to control; type: functional
[25] = system: Leptinotarsa decemlineata; experiment: Insecticidal activity against first-instar larval stage of Leptinotarsa decemlineata infested potato leaves assessed as mortality at 20 mg after 24 hr relative to control; type: functional
[26] = system: Leptinotarsa decemlineata; experiment: Insecticidal activity against third-instar larval stage of Leptinotarsa decemlineata infested potato leaves assessed as mortality at 20 mg after 12 hr relative to control; type: functional
[27] = system: Leptinotarsa decemlineata; type: functional, Instar larval stage; remark: listed apart in the source
[28] = system: Leptinotarsa decemlineata; experiment: Insecticidal activity against adult Leptinotarsa decemlineata infested potato leaves assessed as mortality at 10 mg after 96 hr relative to control; type: functional
[29] = system: Leptinotarsa decemlineata; experiment: Insecticidal activity against third-instar larval stage of Leptinotarsa decemlineata infested potato leaves assessed as mortality at 20 mg after 24 hr relative to control; type: functional
[30] = system: Leptinotarsa decemlineata; type: functional, Instar larval stage; remark: listed apart in the source
[31] = system: Leptinotarsa decemlineata; type: functional, Instar larval stage; remark: listed apart in the source
[32] = system: Leptinotarsa decemlineata; experiment: Insecticidal activity against first-instar larval stage of Leptinotarsa decemlineata infested potato leaves assessed as mortality at 10 mg after 12 hr relative to control; type: functional

| SMILES | mortality [1] [%] | mortality [2] [%] | mortality [3] [%] | mortality [4] [%] | mortality [5] [%] | mortality [7] [%] | mortality [8] [%] | mortality [9] [%] | mortality [10] [%] | mortality [11] [%] | mortality [12] [%] | mortality [13] [%] | mortality [18] [%] | mortality [19] [%] | mortality [21] [%] | mortality [22] [%] | mortality [25] [%] | mortality [26] [%] | mortality [27] [%] | mortality [28] [%] | also measured |
| --- | --- | --- | --- | --- | --- | --- | --- | --- | --- | --- | --- | --- | --- | --- | --- | --- | --- | --- | --- | --- | --- |
| CC12CCC(C1)C(C)(C)C2O (stereo not drawn) [FENCHYL ALCOHOL] | 13.3 | 20 | 0 | 13.3 | 16.7 | 3.3 | 0 | 10 | 3.3 | 23.3 | 10 | 20 | 3.3 | 16.7 | 6.7 | 3.3 | 3.3 | 6.7 | 23.3 | 43.3 | mortality [6]: 3.3%; mortality [14]: 10%; mortality [15]: 3.3%; mortality [16]: 3.3%; mortality [17]: 13.3%; mortality [20]: 3.3%; mortality [23]: 13.3%; mortality [24]: 3.3%; mortality [29]: 10%; mortality [30]: 30%; mortality [31]: 30%; mortality [32]: 3.3% |
| CC(C)[C@H]1CC[C@@H](C)C[C@@H]1O [ISOMENTHOL] | 6.7 | 3.3 | 6.7 | 10 | 30 | 0 | 6.7 | 3.3 | 0 | 0 | 0 | 26.7 | 0 | 20 | 20 | 0 | 0 | 0 | 6.7 | 33.3 | mortality [6]: 0%; mortality [14]: 0%; mortality [15]: 0%; mortality [16]: 0%; mortality [17]: 0%; mortality [20]: 0%; mortality [23]: 0%; mortality [24]: 0%; mortality [29]: 0%; mortality [30]: 0%; mortality [31]: 0%; mortality [32]: 3.3% |
| CC12CCC(CC1=O)C2(C)C (stereo not drawn) [CAMPHOR] | 23.3 | 33.3 | 6.7 | 76.7 | 36.7 | 86.7 | 13.3 | 0 | 0 | 0 | 0 | 93.3 | 86.7 | 0 | 43.3 | 30 | 53.3 | 26.7 | 36.7 | 56.7 | mortality [6]: 13.3%; mortality [14]: 46.7%; mortality [15]: 86.7%; mortality [16]: 86.7%; mortality [17]: 70%; mortality [20]: 83.3%; mortality [23]: 63.3%; mortality [24]: 36.7%; mortality [29]: 30%; mortality [30]: 6.7%; mortality [31]: 6.7%; mortality [32]: 0% |
| CC1(C)C2CCC1(C)C(O)C2 (stereo not drawn) [BORNEOL] | 0 | 0 | 3.3 | 13.3 | 13.3 | 6.7 | 20 | 0 | 0 | 0 | 0 | 66.7 | 16.7 | 0 | 66.7 | 0 | 0 | 0 | 0 | 23.3 | mortality [6]: 0%; mortality [14]: 0%; mortality [15]: 23.3%; mortality [16]: 16.7%; mortality [17]: 20%; mortality [20]: 0%; mortality [23]: 0%; mortality [24]: 0%; mortality [29]: 0%; mortality [30]: 0%; mortality [31]: 0%; mortality [32]: 0% |
| CC1CCC(C(C)C)C(O)C1 (stereo not drawn) [MENTHOL] | 16.7 | 40 | 0 | 36.7 | 16.7 | 30 | 0 | 3.3 | 3.3 | 23.3 | 20 | 33 | 36.7 | 3.3 | 13.3 | 0 | 16.7 | 26.7 | 40 | 30 | mortality [6]: 3.3%; mortality [14]: 6.7%; mortality [15]: 40%; mortality [16]: 33.3%; mortality [17]: 46.7%; mortality [20]: 20%; mortality [23]: 26.7%; mortality [24]: 0%; mortality [29]: 33.3%; mortality [30]: 23.3%; mortality [31]: 26.7%; mortality [32]: 0% |
| CC12CCC(C1)C(C)(C)C2=O (stereo not drawn) [FENCHONE] | 63.3 | 100 | 90 | 83.3 | 100 | 100 | 100 | 46.7 | 53.3 | 93.3 | 56.7 | 100 | 100 | 100 | 100 | 36.7 | 83.3 | 66.7 | 100 | 100 | mortality [6]: 23.3%; mortality [14]: 50%; mortality [15]: 100%; mortality [16]: 100%; mortality [17]: 73.3%; mortality [20]: 100%; mortality [23]: 63.3%; mortality [24]: 33.3%; mortality [29]: 100%; mortality [30]: 100%; mortality [31]: 100%; mortality [32]: 13.3% |
| C=C1C2CCC(C2)C1(C)C (stereo not drawn) [CAMPHENE] | 6.7 | 46.7 | 30 | 10 | 13.3 | 23.3 | 73.3 | 0 | 6.7 | 0 | 0 | 76.7 | 26.7 | 13.3 | 76.7 | 13.3 | 23.3 | 16.7 | 50 | 13.3 | mortality [29]: 43.3%; mortality [30]: 6.7%; mortality [31]: 10%; mortality [32]: 0% |
| CC1=CC[C@@H](C(C)(C)O)CC1 [ALPHA-TERPINEOL] | 13.7 | 20 | 0 | 16.7 | 6.7 | 26.7 | 0 | 6.7 | 0 | 0 | 0 | 23.3 | 30 | 0 | 0 | 16.7 | 23.3 | 13.3 | 23.3 | 16.7 | mortality [6]: 0%; mortality [14]: 6.7%; mortality [15]: 10%; mortality [16]: 6.7%; mortality [17]: 13.3%; mortality [20]: 3.3%; mortality [23]: 6.7%; mortality [24]: 0%; mortality [29]: 13.3%; mortality [30]: 0%; mortality [31]: 0%; mortality [32]: 3.3% |
